Data published in PMC7714403 (JCI Insight, 2020).
Like-named read-outs stand apart in the source and are kept apart here.

Legend:
IKKe = IKKe (Homo sapiens, UniProt Q14164); assay: KiNativ, OCI cells live cell; format: cell-based; conditions: 2 h, labeling site Lys1, peptide […]
NEK3 = NEK3 (Homo sapiens, UniProt P51956); assay: KiNativ, OCI cells live cell; format: cell-based; conditions: 2 h, labeling site Activation Loop, peptide […]
Erk5 = Erk5 (Homo sapiens, UniProt Q13164); assay: KiNativ, OCI cells live cell; format: cell-based; conditions: 2 h, labeling site Lys2, peptide […]
PIP5K3 = PIP5K3 (Homo sapiens, UniProt Q9Y2I7); assay: KiNativ, OCI cells live cell; format: cell-based; conditions: labeling site ATP, peptide GGKSGAAFYATEDDRFILK
PHKg2 = PHKg2 (Homo sapiens, UniProt P15735); assay: KiNativ, OCI cells live cell; format: cell-based; conditions: 2 h, labeling site Lys1, peptide […]
CaMK2d = CaMK2d (Homo sapiens, UniProt Q13557); assay: KiNativ, OCI cells live cell; format: cell-based; conditions: 2 h, labeling site Lys1, peptide […]
LKB1 = LKB1 (Homo sapiens, UniProt Q15831); assay: KiNativ, OCI cells live cell; format: cell-based; conditions: 2 h, labeling site Lys2, peptide […]
BRAF = BRAF (Homo sapiens, UniProt P15056); assay: KiNativ, OCI cells live cell; format: cell-based; conditions: 2 h, labeling site Lys2, peptide […]
FMS = FMS (Homo sapiens, UniProt P07333); assay: KiNativ, OCI cells live cell; format: cell-based; conditions: 2 h, labeling site ATP Loop, peptide […]
DNAPK = DNAPK (Homo sapiens, UniProt P78527); assay: KiNativ, OCI cells live cell; format: cell-based; conditions: 2 h, labeling site ATP
DNAPK, sequence (P78527 2-4128 limits assumed): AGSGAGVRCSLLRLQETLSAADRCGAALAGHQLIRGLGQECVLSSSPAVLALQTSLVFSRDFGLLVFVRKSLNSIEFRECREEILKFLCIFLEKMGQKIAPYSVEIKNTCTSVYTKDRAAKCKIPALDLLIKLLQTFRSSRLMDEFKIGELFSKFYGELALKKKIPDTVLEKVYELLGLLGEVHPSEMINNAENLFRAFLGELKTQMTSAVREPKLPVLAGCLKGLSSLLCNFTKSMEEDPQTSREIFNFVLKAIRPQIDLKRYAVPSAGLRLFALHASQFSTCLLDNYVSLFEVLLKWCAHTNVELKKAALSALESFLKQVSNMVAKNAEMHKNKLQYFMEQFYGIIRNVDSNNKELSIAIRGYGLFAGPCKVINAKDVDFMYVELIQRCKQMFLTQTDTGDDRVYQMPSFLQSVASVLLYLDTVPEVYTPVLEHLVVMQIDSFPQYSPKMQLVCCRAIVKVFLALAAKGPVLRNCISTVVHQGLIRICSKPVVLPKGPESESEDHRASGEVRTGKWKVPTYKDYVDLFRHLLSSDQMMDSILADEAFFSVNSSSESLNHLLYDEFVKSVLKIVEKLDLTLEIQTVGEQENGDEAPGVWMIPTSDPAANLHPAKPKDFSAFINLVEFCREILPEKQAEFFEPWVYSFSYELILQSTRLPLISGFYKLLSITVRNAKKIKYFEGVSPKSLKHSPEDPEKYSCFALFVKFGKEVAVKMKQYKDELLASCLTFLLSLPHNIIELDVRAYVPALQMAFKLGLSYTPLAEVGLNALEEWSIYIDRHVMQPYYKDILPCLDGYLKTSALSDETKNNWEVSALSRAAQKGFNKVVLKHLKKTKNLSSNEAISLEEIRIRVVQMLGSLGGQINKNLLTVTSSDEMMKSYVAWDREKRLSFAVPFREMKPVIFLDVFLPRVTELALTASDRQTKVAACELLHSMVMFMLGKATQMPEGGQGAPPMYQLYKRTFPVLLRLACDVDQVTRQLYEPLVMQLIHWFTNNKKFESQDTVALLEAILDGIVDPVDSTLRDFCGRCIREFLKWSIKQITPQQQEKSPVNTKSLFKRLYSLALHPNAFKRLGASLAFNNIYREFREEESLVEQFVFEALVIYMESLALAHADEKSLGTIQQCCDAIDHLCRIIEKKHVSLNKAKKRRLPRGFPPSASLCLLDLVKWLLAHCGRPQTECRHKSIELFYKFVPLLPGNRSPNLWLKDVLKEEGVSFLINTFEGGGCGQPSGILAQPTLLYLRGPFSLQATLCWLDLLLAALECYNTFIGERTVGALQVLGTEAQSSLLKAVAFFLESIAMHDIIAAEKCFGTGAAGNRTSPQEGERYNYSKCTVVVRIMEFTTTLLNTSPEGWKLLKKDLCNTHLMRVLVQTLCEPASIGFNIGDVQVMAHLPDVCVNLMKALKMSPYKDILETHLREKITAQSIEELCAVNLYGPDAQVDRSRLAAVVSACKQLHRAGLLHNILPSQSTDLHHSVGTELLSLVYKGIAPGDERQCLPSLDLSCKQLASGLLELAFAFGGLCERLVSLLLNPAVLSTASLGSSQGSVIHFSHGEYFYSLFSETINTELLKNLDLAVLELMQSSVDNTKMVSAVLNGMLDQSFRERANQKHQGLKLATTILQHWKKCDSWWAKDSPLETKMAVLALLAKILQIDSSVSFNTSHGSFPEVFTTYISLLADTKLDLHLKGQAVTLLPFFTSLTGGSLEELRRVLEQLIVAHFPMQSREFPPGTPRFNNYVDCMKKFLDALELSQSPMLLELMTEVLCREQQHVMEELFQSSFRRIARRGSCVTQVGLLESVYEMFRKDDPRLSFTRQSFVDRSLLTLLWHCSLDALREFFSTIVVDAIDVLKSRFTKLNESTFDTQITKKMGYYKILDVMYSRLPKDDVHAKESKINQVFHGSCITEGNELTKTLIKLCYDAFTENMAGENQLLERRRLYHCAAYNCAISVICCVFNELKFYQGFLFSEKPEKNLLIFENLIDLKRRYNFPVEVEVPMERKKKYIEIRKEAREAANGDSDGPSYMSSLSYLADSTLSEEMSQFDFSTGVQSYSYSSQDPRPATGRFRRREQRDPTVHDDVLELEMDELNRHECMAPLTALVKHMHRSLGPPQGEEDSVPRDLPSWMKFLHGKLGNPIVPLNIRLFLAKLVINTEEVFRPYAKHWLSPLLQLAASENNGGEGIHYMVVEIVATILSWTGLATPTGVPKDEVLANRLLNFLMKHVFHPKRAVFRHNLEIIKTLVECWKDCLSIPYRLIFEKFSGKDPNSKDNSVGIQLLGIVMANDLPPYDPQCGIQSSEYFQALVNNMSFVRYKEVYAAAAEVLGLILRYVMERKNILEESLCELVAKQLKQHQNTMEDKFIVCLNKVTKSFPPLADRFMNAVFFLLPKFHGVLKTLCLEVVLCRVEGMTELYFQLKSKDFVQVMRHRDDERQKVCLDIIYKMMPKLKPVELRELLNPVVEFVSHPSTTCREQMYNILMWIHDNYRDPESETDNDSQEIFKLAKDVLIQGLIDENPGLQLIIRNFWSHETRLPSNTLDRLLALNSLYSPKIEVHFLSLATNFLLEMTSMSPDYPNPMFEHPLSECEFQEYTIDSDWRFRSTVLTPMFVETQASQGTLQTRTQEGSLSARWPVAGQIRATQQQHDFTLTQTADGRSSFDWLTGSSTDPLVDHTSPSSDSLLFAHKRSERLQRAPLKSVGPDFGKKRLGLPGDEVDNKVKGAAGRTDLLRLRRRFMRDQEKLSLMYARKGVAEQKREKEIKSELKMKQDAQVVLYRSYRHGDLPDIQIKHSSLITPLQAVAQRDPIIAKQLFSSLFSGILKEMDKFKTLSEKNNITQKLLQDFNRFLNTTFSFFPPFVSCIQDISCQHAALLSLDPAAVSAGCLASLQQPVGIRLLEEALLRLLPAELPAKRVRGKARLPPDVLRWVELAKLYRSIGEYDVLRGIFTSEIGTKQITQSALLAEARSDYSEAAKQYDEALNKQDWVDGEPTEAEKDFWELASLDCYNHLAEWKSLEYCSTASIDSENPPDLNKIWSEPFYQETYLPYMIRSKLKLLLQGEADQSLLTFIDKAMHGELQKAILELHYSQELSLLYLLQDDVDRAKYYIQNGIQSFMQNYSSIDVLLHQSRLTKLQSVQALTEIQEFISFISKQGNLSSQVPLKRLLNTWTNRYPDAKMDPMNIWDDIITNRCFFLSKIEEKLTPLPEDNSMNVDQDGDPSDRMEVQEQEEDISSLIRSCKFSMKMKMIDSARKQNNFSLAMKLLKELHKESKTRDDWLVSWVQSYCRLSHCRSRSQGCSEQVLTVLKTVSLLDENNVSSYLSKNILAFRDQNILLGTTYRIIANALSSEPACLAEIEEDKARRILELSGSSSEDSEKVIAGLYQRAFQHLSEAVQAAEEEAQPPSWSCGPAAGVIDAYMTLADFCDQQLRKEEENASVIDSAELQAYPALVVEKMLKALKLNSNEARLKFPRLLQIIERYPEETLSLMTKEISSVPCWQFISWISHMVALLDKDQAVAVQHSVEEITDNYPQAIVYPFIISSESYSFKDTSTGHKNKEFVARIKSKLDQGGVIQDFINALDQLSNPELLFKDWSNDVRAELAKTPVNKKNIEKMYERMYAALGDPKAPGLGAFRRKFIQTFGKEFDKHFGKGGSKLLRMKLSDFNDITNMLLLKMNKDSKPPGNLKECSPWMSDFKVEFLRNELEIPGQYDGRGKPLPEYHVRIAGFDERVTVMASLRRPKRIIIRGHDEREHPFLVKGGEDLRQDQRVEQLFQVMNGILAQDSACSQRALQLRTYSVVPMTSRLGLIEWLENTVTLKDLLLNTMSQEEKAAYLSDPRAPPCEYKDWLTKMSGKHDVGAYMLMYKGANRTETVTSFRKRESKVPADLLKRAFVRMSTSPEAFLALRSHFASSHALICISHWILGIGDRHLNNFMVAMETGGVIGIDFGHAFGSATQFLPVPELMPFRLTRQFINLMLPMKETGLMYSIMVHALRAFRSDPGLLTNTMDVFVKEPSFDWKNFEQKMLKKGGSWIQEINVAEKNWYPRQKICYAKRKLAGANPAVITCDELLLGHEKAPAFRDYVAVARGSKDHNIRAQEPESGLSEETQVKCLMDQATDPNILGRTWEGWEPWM

PITSLRE = PITSLRE (Homo sapiens, UniProt P21127); assay: KiNativ, OCI cells live cell; format: cell-based; conditions: 2 h, labeling site Lys2, peptide […]
NEK1 = NEK1 (Homo sapiens, UniProt Q96PY6); assay: KiNativ, OCI cells live cell; format: cell-based; conditions: 2 h, labeling site Lys2, peptide […]
ABL, ARG = assay: KiNativ, OCI cells live cell; format: cell-based, human
FLT3 ITD/F691L = FLT3 ITD/F691L (Homo sapiens, UniProt P36888, F691L/ITD); assay: KdELECT binding assay
PKCi = PKCi (Homo sapiens, UniProt P41743); assay: KiNativ, OCI cells live cell; format: cell-based; conditions: 2 h
PKCi, sequence (P41743 whole entry): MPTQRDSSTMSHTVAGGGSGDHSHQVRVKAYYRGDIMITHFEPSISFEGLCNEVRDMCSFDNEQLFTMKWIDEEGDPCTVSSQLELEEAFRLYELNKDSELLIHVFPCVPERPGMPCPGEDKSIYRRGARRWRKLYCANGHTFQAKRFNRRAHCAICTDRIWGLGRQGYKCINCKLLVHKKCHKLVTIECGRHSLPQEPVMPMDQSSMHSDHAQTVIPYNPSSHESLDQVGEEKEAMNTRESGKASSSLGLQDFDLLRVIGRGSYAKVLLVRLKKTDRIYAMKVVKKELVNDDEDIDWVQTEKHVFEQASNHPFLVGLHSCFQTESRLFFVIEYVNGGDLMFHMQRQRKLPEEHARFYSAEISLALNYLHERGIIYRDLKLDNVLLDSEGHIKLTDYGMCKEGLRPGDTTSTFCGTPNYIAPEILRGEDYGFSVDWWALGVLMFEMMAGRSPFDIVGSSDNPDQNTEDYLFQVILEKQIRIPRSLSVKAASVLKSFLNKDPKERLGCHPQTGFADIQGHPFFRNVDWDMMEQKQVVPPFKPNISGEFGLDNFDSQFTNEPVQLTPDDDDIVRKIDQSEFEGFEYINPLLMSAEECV

ROCK1, ROCK2 = assay: KiNativ, OCI cells live cell; format: cell-based, human
CK2a1 = CK2a1 (Homo sapiens, UniProt P68400); assay: KiNativ, OCI cells live cell; format: cell-based; conditions: 2 h, labeling site Protein Kinase Domain, peptide […]
IRAK2 = IRAK2 (Homo sapiens, UniProt O43187); assay: KiNativ, OCI cells live cell; format: cell-based; conditions: 2 h, labeling site Lys1, peptide […]
MAP3K1 = MAP3K1 (Homo sapiens, UniProt Q13233); assay: KiNativ, OCI cells live cell; format: cell-based; conditions: 2 h, labeling site Lys2, peptide […]
MAPKAPK2, MAPKAPK3 = assay: KiNativ, OCI cells live cell; format: cell-based, human; conditions: labeling site Lys2, peptide DVKPENLLYTSK
MAP3K5 = MAP3K5 (Homo sapiens, UniProt Q99683); assay: KiNativ, OCI cells live cell; format: cell-based; conditions: 2 h, labeling site Lys2, peptide […]
NEK8 = NEK8 (Homo sapiens, UniProt Q86SG6); assay: KiNativ, OCI cells live cell; format: cell-based; conditions: 2 h, labeling site Lys2, peptide […]
Erk1 = Erk1 (Homo sapiens, UniProt P27361); assay: KiNativ, OCI cells live cell; format: cell-based; conditions: 2 h, labeling site Lys2, peptide […]
PCTAIRE1, PCTAIRE3 = assay: KiNativ, OCI cells live cell; format: cell-based, human; conditions: labeling site Lys2, peptide DLKPQNLLINER
p38a = p38a (Homo sapiens, UniProt Q16539); assay: KiNativ, OCI cells live cell; format: cell-based
p38a, sequence (Q16539 whole entry): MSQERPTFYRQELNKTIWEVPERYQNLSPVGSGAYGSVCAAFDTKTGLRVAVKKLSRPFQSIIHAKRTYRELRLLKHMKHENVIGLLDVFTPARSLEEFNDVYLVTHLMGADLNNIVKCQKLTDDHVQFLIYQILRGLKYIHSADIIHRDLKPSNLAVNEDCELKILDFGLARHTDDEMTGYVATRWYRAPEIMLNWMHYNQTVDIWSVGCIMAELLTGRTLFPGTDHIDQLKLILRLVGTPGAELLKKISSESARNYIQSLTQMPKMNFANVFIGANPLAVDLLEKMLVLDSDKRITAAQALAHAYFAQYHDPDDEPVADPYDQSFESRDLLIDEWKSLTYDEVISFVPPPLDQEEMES

CDK4 = CDK4 (Homo sapiens, UniProt P11802); assay: KdELECT binding assay; design: purchased Eurofins DiscoverX
MST3 = MST3 (Homo sapiens, UniProt Q9Y6E0); assay: KiNativ, OCI cells live cell; format: cell-based; conditions: labeling site Lys2, peptide DIKAANVLLSEHGEVK
ZAP70 = target: T1, ZAP70 (Homo sapiens, UniProt P43403); assay: KiNativ, OCI cells live cell; format: cell-based; conditions: 2 h, labeling site Activation Loop
T1 sequence (P43403 1-619): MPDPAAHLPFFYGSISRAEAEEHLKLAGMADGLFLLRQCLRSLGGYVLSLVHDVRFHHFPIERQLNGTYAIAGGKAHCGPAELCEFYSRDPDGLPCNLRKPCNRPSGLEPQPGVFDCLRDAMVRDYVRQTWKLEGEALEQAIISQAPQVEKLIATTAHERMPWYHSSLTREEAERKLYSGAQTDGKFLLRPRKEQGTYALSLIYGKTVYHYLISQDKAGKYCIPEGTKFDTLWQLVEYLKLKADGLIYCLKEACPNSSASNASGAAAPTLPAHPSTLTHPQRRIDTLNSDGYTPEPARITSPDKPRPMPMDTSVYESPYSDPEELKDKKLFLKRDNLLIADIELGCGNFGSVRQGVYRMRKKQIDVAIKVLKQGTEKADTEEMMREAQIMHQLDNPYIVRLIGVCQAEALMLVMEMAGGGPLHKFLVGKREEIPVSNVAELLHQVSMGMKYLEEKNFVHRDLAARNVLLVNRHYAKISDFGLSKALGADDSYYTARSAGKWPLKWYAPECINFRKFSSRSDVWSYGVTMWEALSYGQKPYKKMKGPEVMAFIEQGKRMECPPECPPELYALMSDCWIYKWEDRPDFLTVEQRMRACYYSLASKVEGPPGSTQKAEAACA

Wee1 = Wee1 (Homo sapiens, UniProt P30291); assay: KiNativ, OCI cells live cell; format: cell-based; conditions: 2 h, labeling site Lys2, peptide […]

CN1CCN(Cc2ccc(Nc3ncc(Cl)c(Nc4ccccc4S(=O)(=O)N(C)C)n3)cc2)CC1 [TP-0903]
inhibition at 0.1 µM (IKKe): 30.5%
inhibition at 0.1 µM (NEK3): -11.9%
inhibition at 0.1 µM (Erk5): 86.8%
Inhibition (PIP5K3): 18.4%
inhibition at 0.1 µM (PHKg2): -5.7%
inhibition at 0.1 µM (CaMK2d): 34.5%
inhibition at 0.1 µM (LKB1): 25.7%
inhibition at 0.1 µM (BRAF): -3.1%
inhibition at 0.1 µM (FMS): -50%
inhibition at 0.1 µM (DNAPK; peptide EHPFLVKGGEDLR): 2.8%
inhibition at 0.1 µM (DNAPK; peptide KGGSWIQEINVAEK): 8.4%
inhibition at 0.1 µM (PITSLRE): -18.9%
inhibition at 0.1 µM (NEK1): -4.4%
Inhibition (ABL, ARG; labeling site Activation Loop, peptide LMTGDTYTAHAGAKFPIK): 37.3%
Inhibition (ABL, ARG; labeling site Lys1, peptide YSLTVAVKTLKEDTMEVEEFLK): 40.1%
Kd (FLT3 ITD/F691L): 1.9 nM
inhibition at 0.1 µM (PKCi; labeling site Lys1, peptide IYAMKVVK): 9.2%
inhibition at 0.1 µM (PKCi; labeling site Lys2, peptide DLKLDNVLLDSEGHIK): 8.9%
Inhibition (ROCK1, ROCK2; labeling site Lys1, peptide VYAMKLLSK): -8.5%
Inhibition (ROCK1, ROCK2; labeling site Lys2, peptide DVKPDNMLLDK): -30.5%
inhibition at 0.1 µM (CK2a1): -50.8%
inhibition at 0.1 µM (IRAK2): -9.1%
inhibition at 0.1 µM (MAP3K1): 57.6%
Inhibition (MAPKAPK2, MAPKAPK3): -42.8%
inhibition at 0.1 µM (MAP3K5): -1.8%
inhibition at 0.1 µM (NEK8): -6.8%
inhibition at 0.1 µM (Erk1): 17.7%
Inhibition (PCTAIRE1, PCTAIRE3): 79.0%
Inhibition (p38a; labeling site Lys2, peptide DLKPSNLAVNEDCELK): -2.7%
Inhibition (p38a; labeling site Other, peptide QELNKTIWEVPER): 5.6%
Kd (CDK4): < 5 nM
Inhibition (MST3): 35.2%
inhibition at 0.1 µM (ZAP70; peptide ISDFGLSKALGADDSYYTAR): -29.4%
inhibition at 0.1 µM (ZAP70; peptide […], read-out: Inhibition): -4%
inhibition at 0.1 µM (Wee1): 67.8%
